Measurements from ChEMBL document CHEMBL1909046, “DrugMatrix in vitro pharmacology data”.

Tests used:
Vasopressin V1a receptor = Vasopressin V1a receptor (Homo sapiens, UniProt P37288); type: cell membranes, Membrane; details: hek293; further: in other assays of this panel Not Active means under 50% inhibition at 10 µM
D(3) dopamine receptor = D(3) dopamine receptor (Homo sapiens, UniProt P35462); test: DRUGMATRIX: Dopamine D3 radioligand binding (ligand: [3H] Spiperone); type: cell membranes, CHO, Membrane; details: for Ki: read-out: Ki
Sequence of D(3) dopamine receptor (P35462 whole entry): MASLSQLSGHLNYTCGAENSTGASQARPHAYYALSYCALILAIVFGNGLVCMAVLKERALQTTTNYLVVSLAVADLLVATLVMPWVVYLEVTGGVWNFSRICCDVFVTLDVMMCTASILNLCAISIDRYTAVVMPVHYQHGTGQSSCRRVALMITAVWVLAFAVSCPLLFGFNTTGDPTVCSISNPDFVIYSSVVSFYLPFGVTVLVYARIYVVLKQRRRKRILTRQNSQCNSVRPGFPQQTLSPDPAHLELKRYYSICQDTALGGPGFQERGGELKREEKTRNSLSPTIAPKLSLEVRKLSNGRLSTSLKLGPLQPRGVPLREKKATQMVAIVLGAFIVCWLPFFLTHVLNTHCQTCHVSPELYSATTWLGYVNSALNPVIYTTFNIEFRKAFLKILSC

[1] = molecular target: Sodium-dependent dopamine transporter (Homo sapiens, UniProt Q01959); test: DRUGMATRIX: Dopamine Transporter radioligand binding (ligand: [125I] RTI-55); type: cell membranes, CHO-K1, Membrane; details: Not Active = under 50% inhibition at 10 µM
Sequence of Sodium-dependent dopamine transporter (Q01959 whole entry): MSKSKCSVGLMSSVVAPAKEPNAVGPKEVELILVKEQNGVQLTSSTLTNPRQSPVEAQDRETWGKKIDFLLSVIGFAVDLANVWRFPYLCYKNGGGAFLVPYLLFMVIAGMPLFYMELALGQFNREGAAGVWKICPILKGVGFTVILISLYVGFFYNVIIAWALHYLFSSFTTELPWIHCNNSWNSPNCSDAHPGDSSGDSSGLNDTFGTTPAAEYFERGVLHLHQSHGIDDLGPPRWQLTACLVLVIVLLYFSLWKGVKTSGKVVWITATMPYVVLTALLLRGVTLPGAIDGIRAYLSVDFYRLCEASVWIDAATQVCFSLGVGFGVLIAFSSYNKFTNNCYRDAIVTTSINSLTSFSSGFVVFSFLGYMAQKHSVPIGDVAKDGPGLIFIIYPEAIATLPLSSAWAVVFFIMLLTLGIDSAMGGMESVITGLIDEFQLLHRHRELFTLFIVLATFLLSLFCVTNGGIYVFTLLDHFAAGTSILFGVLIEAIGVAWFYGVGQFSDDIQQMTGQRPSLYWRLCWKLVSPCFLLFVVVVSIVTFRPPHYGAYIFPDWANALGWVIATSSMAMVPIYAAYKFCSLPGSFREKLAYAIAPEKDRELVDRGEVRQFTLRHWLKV

Endothelin-1 receptor = molecular target: T1, Endothelin-1 receptor (Homo sapiens, UniProt P25101); type: cell membranes, Membrane; details: cho-k1; further: in other assays of this panel Not Active means under 50% inhibition at 10 µM
T1 sequence (P25101 whole entry): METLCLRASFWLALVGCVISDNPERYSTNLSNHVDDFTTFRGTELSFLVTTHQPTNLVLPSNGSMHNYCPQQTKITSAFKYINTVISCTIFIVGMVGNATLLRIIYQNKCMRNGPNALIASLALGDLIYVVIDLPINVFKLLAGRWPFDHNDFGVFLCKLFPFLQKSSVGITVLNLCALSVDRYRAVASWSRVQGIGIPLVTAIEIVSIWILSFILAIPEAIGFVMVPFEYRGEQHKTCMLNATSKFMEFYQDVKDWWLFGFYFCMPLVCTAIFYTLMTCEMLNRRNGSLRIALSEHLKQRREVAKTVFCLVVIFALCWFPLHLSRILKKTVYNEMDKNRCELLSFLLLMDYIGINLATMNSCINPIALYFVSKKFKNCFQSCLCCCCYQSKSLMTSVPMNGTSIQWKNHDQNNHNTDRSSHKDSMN

[2] = DRUGMATRIX: Phorbol Ester radioligand binding (ligand: [3H] PDBu); type: cell membranes, Mus musculus, ICR, Brain, Membrane; details: Not Active = under 50% inhibition at 10 µM
Neutrophil elastase = molecular target: T2, Neutrophil elastase (Homo sapiens, UniProt P08246); type: tissue-based;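 further: inhibition of neutrophil elastase enzyme activity, measured with a p-nitroanilide-linked peptide substrate; in other assays of this panel Not Active means under 50% inhibition at 10 µM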
T2 sequence (P08246 whole entry): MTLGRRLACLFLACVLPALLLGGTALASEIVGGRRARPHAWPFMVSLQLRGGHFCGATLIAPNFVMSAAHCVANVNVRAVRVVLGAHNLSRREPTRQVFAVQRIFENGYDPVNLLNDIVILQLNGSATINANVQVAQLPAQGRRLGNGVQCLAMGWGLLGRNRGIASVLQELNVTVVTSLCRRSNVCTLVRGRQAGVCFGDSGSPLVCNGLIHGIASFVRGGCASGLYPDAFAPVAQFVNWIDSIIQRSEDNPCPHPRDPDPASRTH

Sequence of Vasopressin V1a receptor (P37288 whole entry): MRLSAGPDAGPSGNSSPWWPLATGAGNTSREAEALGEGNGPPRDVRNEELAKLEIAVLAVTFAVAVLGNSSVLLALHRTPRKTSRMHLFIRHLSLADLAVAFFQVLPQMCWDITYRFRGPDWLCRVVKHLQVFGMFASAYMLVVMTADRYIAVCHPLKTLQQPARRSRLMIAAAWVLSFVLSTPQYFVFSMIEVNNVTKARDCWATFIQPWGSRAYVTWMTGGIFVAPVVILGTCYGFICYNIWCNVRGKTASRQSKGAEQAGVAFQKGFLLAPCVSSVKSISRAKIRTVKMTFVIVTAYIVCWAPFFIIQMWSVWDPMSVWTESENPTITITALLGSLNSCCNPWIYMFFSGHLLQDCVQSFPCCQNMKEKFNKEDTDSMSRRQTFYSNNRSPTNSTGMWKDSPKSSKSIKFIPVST

| SMILES | IC50 (Vasopressin V1a receptor) | IC50 (D(3) dopamine receptor; cho) | IC50 ([1]; read-out: IC50) [nM] | Ki ([1]; read-out: Ki) [nM] | IC50 (Endothelin-1 receptor) | IC50 [2] | Ki [2] | IC50 (Neutrophil elastase) | IC50 ([1]; cho-k1) | IC50 (D(3) dopamine receptor; read-out: IC50) [nM] | Ki (D(3) dopamine receptor) [nM] |
| --- | --- | --- | --- | --- | --- | --- | --- | --- | --- | --- | --- |
| CN(C)CC[C@@H](c1ccc(Cl)cc1)c1ccccn1 [DEXCHLORPHENIRAMINE] | Not Active | Not Active | 931 | 739 | Not Active | Not Active | Not Active | Not Active | – | – | – |
| C[C@@H]1CC[C@@]2(OC1)O[C@H]1[C@@H](O)[C@H]3[C@@H]4CC[C@H]5C[C@@H](O[C@@H]6O[C@H](CO)[C@H](O[C@@H]7O[C@H](CO)C(O)[C@H](O[C@@H]8OC[C@@H](O)[C@H](O)[C@H]8O)[C@H]7O[C@@H]7O[C@H](CO)[C@H](O)[C@H](O[C@@H]8O[C@H](CO)[C@@H](O)[C@H](O)[C@H]8O)[C@H]7O)[C@H](O)[C@H]6O)[C@H](O)C[C@]5(C)[C@H]4CC[C@]3(C)[C@H]1[C@@H]2C (stereo partly drawn) [DIGITONIN] | Not Active | Not Active | – | – | Not Active | Not Active | Not Active | Not Active | Not Active | – | – |
| OC(CCCN1CCCCC1)(c1ccccc1)c1ccccc1 [DIPHENIDOL] | Not Active | – | – | – | Not Active | Not Active | Not Active | Not Active | Not Active | 2310 | 785 |
| C[C@H]1O[C@@H](n2cc(F)c(=O)[nH]c2=O)[C@H](O)[C@@H]1O [DOXIFLURIDINE] | Not Active | Not Active | – | – | Not Active | Not Active | Not Active | Not Active | Not Active | – | – |
| Cn1c(=O)c2c(ncn2CC(O)CO)n(C)c1=O (stereo not drawn) [DYPHYLLINE] | Not Active | Not Active | – | – | Not Active | Not Active | Not Active | Not Active | Not Active | – | – |
| CC[C@H]1CN2CCc3cc(OC)c(OC)cc3[C@@H]2C[C@@H]1C[C@H]1NCCc2cc(OC)c(OC)cc21 [EMETINE] | Not Active | Not Active | – | – | Not Active | Not Active | Not Active | Not Active | Not Active | – | – |
| C[C@@H](CO)NC(=O)[C@@H]1C=C2c3cccc4[nH]cc(c34)C[C@H]2N(C)C1 [ERGONOVINE] | Not Active | – | – | – | Not Active | Not Active | Not Active | Not Active | Not Active | 567 | 193 |
| COC(=O)CCc1ccc(OCC(O)CNC(C)C)cc1 (stereo not drawn) [ESMOLOL] | Not Active | Not Active | – | – | Not Active | Not Active | Not Active | Not Active | Not Active | – | – |
| CCC1(C)CC(=O)NC1=O (stereo not drawn) [ETHOSUXIMIDE] | Not Active | Not Active | – | – | Not Active | Not Active | Not Active | Not Active | Not Active | – | – |
| C#C[C@]1(OC(C)=O)CC[C@H]2[C@@H]3CCC4=C[C@@H](OC(C)=O)CC[C@@H]4[C@H]3CC[C@@]21C [ETHYNODIOL DIACETATE] | Not Active | Not Active | – | – | Not Active | Not Active | Not Active | Not Active | Not Active | – | – |
| COc1cc([C@@H]2c3cc4c(cc3[C@@H](O[C@@H]3O[C@@H]5CO[C@@H](C)O[C@H]5[C@H](O)[C@H]3O)[C@H]3COC(=O)[C@H]23)OCO4)cc(OC)c1O [ETOPOSIDE] | Not Active | Not Active | – | – | Not Active | Not Active | Not Active | Not Active | Not Active | – | – |
| C=CCc1ccc(O)c(OC)c1 [EUGENOL] | Not Active | Not Active | – | – | Not Active | Not Active | Not Active | Not Active | Not Active | – | – |
| CC(C(=O)O)c1cccc(Oc2ccccc2)c1 (stereo not drawn) [FENOPROFEN] | Not Active | Not Active | – | – | Not Active | Not Active | Not Active | Not Active | Not Active | – | – |
| CC(C)(C)NC(=O)[C@H]1CC[C@H]2[C@@H]3CC[C@H]4NC(=O)C=C[C@]4(C)[C@H]3CC[C@]12C [FINASTERIDE] | Not Active | Not Active | – | – | Not Active | Not Active | Not Active | Not Active | Not Active | – | – |
| COc1ccc2c3c1O[C@H]1C[C@@H](O)C=C[C@@]31CCN(C)C2 [GALANTAMINE] | Not Active | Not Active | – | – | Not Active | Not Active | Not Active | Not Active | Not Active | – | – |
